Measured values from patent publication US8969565B2, “Imidazo[1,2-b]pyridazine-based compounds, compositions comprising them, and methods of their use” (Lexicon Pharmaceuticals, Inc., priority 2012, dated 2015).

Target: T1, AAK1 (Homo sapiens, UniProt Q2M2I8)
T1 construct: HA; expressed in transfected cells; host or cells: HEK293F
Experiment: HEK281 cell-based assay (phospho-mu2 Western blot in transfected HEK293F cells)
Settings: 3 hours incubation, read-out: CBA IC50
How it was run: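 After 3 hours at 37° C. with compound (five 3-fold-spaced concentrations, DMEM+0.5% FBS), transiently transfected HEK293F cells expressing full-length human AAK1 and Flag-tagged mu2 were lysed. mu2 phosphorylation was read by anti-phospho-mu2 immunoblot, normalized against total mu2 by anti-Flag blot.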

T1 sequence (Q2M2I8 1-863 isoform Q2M2I8-2): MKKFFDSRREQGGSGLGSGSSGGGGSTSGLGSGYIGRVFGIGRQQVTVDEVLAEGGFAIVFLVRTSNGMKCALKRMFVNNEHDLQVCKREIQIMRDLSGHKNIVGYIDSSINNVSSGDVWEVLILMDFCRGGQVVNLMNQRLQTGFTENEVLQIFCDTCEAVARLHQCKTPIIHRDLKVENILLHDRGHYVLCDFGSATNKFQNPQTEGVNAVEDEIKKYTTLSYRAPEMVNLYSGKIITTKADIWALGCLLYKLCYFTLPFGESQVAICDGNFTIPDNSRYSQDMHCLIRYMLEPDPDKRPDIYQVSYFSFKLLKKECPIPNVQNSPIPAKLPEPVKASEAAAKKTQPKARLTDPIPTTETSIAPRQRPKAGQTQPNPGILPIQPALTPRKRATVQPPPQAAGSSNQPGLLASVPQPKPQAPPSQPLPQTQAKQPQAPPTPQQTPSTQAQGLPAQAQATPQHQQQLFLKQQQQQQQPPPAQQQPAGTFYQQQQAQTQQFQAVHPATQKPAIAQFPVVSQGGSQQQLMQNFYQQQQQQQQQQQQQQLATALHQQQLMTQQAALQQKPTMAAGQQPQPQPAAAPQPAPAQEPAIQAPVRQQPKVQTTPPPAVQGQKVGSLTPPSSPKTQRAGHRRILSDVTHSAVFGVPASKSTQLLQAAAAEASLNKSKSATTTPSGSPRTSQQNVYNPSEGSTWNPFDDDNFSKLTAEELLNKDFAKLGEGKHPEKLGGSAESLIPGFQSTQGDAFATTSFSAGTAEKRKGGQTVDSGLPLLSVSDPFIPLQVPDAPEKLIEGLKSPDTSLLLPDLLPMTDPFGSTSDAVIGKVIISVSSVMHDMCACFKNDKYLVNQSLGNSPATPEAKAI

Row | Compound | IC50 [nM]
1 | CN(CCCNc1ccc2ncc(-c3ccc(CN)cc3)n2n1)c1ccccc1 [N1-(3-(4-(aminomethyl)phenyl)imidazo[1,2-b]pyridazin-6-yl)-N3-methyl-N3-phenylpropane-1,3-diamine] | ≤ 100
2 | CN(CCCNc1ccc2ncc(-c3ccc(CN)s3)n2n1)c1ccccc1 [N1-(3-(5-(aminomethyl)thiophen-2-yl)imidazo[1,2-b]pyridazin-6-yl)-N3-methyl-N3-phenylpropane-1,3-diamine] | ≤ 1000
3 | CN(CCNc1ccc2ncc(-c3ccc(C#N)cc3)n2n1)C(=O)CC(C)(C)C [N-(2-((3-(4-cyanophenyl)imidazo[1,2-b]pyridazin-6-yl)amino)ethyl)-N,3,3-trimethylbutanamide] | ≤ 100
4 | CN(CCNc1ccc2ncc(-c3ccc(C#N)cc3)n2n1)C(=O)C(C)(C)C [N-(2-((3-(4-cyanophenyl)imidazo[1,2-b]pyridazin-6-yl)amino)ethyl)-N-methylpivalamide] | ≤ 100
5 | COc1ncccc1-c1cnc2ccc(NCCOC3CCCC3)nn12 [N-(2-(cyclopentyloxy)ethyl)-3-(2-methoxypyridin-3-yl)imidazo[1,2-b]pyridazin-6-amine] | ≤ 100
6 | Fc1cnccc1-c1cnc2ccc(NCCOC3CCCC3)nn12 [N-(2-(cyclopentyloxy)ethyl)-3-(3-fluoropyridin-4-yl)imidazo[1,2-b]pyridazin-6-amine] | ≤ 100
7 | COc1cnccc1-c1cnc2ccc(NCCOC3CCCC3)nn12 [N-(2-(cyclopentyloxy)ethyl)-3-(3-methoxypyridin-4-yl)imidazo[1,2-b]pyridazin-6-amine] | ≤ 1000
8 | c1cc(C2CCCN2)ccc1-c1cnc2ccc(NCCOC3CCCC3)nn12 (centres unmarked) [N-(2-(cyclopentyloxy)ethyl)-3-(4-(pyrrolidin-2-yl)phenyl)imidazo[1,2-b]pyridazin-6-amine] | ≤ 100
9 | CCN(CC)CCNC(=O)c1ccc(-c2cnc3ccc(NCCOCC(C)C)nn23)cc1 [N-(2-(diethylamino)ethyl)-4-(6-((2-isobutoxyethyl)amino)imidazo[1,2-b]pyridazin-3-yl)benzamide] | ≤ 100
10 | CCN(CC)CCNC(=O)c1ccc(-c2cnc3ccc(NCCOC(C)C)nn23)cc1 [N-(2-(diethylamino)ethyl)-4-(6-((2-isopropoxyethyl)amino)imidazo[1,2-b]pyridazin-3-yl)benzamide] | ≤ 100
11 | CNCCNC(=O)c1ccc(-c2cnc3ccc(NCCCN(C)C(=O)C(C)(C)C)nn23)cc1 [N-(2-(methylamino)ethyl)-4-(6-((3-(N-methylpivalamido)propyl)amino)imidazo[1,2-b]pyridazin-3-yl)benzamide] | ≤ 1000
12 | COc1cnccc1-c1cnc2ccc(NCCOC(C)(C)C)nn12 [N-(2-(tert-butoxy)ethyl)-3-(3-methoxypyridin-4-yl)imidazo[1,2-b]pyridazin-6-amine] | ≤ 100
13 | CC(C)(C)OCCNc1ccc2ncc(-c3ccc(C4CCCN4)cc3)n2n1 (centres unmarked) [N-(2-(tert-butoxy)ethyl)-3-(4-(pyrrolidin-2-yl)phenyl)imidazo[1,2-b]pyridazin-6-amine] | ≤ 100
14 | CC(C)(C)OCCCNc1ccc2ncc(-c3ccc(C(=O)NCCN)cc3)n2n1 [N-(2-aminoethyl)-4-(6-((3-(tert-butoxy)propyl)amino)imidazo[1,2-b]pyridazin-3-yl)benzamide] | ≤ 1000
15 | NCCNC(=O)c1ccc(-c2cnc3ccc(NCCCc4ccccc4)nn23)cc1 [N-(2-aminoethyl)-4-(6-((3-phenylpropyl)amino)imidazo[1,2-b]pyridazin-3-yl)benzamide] | ≤ 1000
16 | CCOc1ccccc1CCNc1ccc2ncc(-c3ccncc3OC)n2n1 [N-(2-ethoxyphenethyl)-3-(3-methoxypyridin-4-yl)imidazo[1,2-b]pyridazin-6-amine] | ≤ 100

Row | Compound | IC50 [nM]
17 | COc1ccccc1-c1cnc2ccc(NCCOCC(C)C)nn12 [N-(2-isobutoxyethyl)-3-(2-methoxyphenyl)imidazo[1,2-b]pyridazin-6-amine] | ≤ 1000
18 | COc1cnccc1-c1cnc2ccc(NCCOCC(C)C)nn12 [N-(2-isobutoxyethyl)-3-(3-methoxypyridin-4-yl)imidazo[1,2-b]pyridazin-6-amine] | ≤ 100
19 | CC(C)COCCNc1ccc2ncc(-c3ccncc3)n2n1 [N-(2-isobutoxyethyl)-3-(pyridin-4-yl)imidazo[1,2-b]pyridazin-6-amine] | ≤ 1000
20 | CC(C)OCCNc1ccc2ncc(-c3cc[nH]n3)n2n1 [N-(2-isopropoxyethyl)-3-(1H-pyrazol-3-yl)imidazo[1,2-b]pyridazin-6-amine] | ≤ 1000
21 | COc1cnccc1-c1cnc2ccc(NCCOC(C)C)nn12 [N-(2-isopropoxyethyl)-3-(3-methoxypyridin-4-yl)imidazo[1,2-b]pyridazin-6-amine] | ≤ 10
22 | CC(C)OCCNc1ccc2ncc(-c3ccc(C4CCCN4)cc3)n2n1 (centres unmarked) [N-(2-isopropoxyethyl)-3-(4-(pyrrolidin-2-yl)phenyl)imidazo[1,2-b]pyridazin-6-amine] | ≤ 100
23 | CC(C)OCCNc1ccc2ncc(-c3ccns3)n2n1 [N-(2-isopropoxyethyl)-3-(isothiazol-5-yl)imidazo[1,2-b]pyridazin-6-amine] | ≤ 100
24 | CC(C)OCCNc1ccc2ncc(-c3cscn3)n2n1 [N-(2-isopropoxyethyl)-3-(thiazol-4-yl)imidazo[1,2-b]pyridazin-6-amine] | ≤ 1000
25 | CNCCOCc1ccc(-c2cnc3ccc(NCCC(C)(C)C)nn23)cc1 [N-(3,3-dimethylbutyl)-3-(4-((2-(methylamino)ethoxy)methyl)phenyl)imidazo[1,2-b]pyridazin-6-amine] | ≤ 100
26 | CC(C)(C)CCNc1ccc2ncc(-c3ccc(C4CCCN4)cc3)n2n1 (centres unmarked) [N-(3,3-dimethylbutyl)-3-(4-(pyrrolidin-2-yl)phenyl)imidazo[1,2-b]pyridazin-6-amine] | ≤ 1000
27 | CN(CCCNc1ccc2ncc(-c3ccc(CN)cc3)n2n1)C(=O)C(C)(C)C [N-(3-((3-(4-(aminomethyl)phenyl)imidazo[1,2-b]pyridazin-6-yl)amino)propyl)-N-methylpivalamide] | ≤ 1000
28 | COc1cnccc1-c1cnc2ccc(NCCCOC(C)(C)C)nn12 [N-(3-(tert-butoxy)propyl)-3-(3-methoxypyridin-4-yl)imidazo[1,2-b]pyridazin-6-amine] | ≤ 1000
29 | FCCCNc1ccc2ncc(-c3ccc(C4CCCN4)cc3)n2n1 (centres unmarked) [N-(3-fluoropropyl)-3-(4-(pyrrolidin-2-yl)phenyl)imidazo[1,2-b]pyridazin-6-amine] | ≤ 100
30 | c1ccc(CCCNc2ccc3ncc(-c4ccc(C5CCCN5)cc4)n3n2)cc1 (centres unmarked) [N-(3-phenylpropyl)-3-(4-(pyrrolidin-2-yl)phenyl)imidazo[1,2-b]pyridazin-6-amine] | ≤ 1000
31 | COc1cnccc1-c1cnc2ccc(NCC3CCCC3)nn12 [N-(cyclopentylmethyl)-3-(3-methoxypyridin-4-yl)imidazo[1,2-b]pyridazin-6-amine] | ≤ 100
32 | CCCCNc1ccc2ncc(-c3sc(C)nc3C)n2n1 [N-butyl-3-(2,4-dimethylthiazol-5-yl)imidazo[1,2-b]pyridazin-6-amine] | ≤ 100

Other lines, results leading:

Row | IC50 [nM] | Compound
33 | ≤ 1000 | CC(C)(C)CCNc1ccc2ncc(-c3ccc(CNCCN)cc3)n2n1 [N1-(4-(6-((3,3-dimethylbutyl)amino)imidazo[1,2-b]pyridazin-3-yl)benzyl)ethane-1,2-diamine]
34 | ≤ 1000 | CCCCNc1ccc2ncc(-c3ccc(CNCCN)cc3)n2n1 [N1-(4-(6-(butylamino)imidazo[1,2-b]pyridazin-3-yl)benzyl)ethane-1,2-diamine]
35 | ≤ 1000 | CCCCNc1ccc2ncc(-c3ccc(CNCCCN)cc3)n2n1 [N1-(4-(6-(butylamino)imidazo[1,2-b]pyridazin-3-yl)benzyl)propane-1,3-diamine]
36 | ≤ 1000 | CC(C)(C)CCNc1ccc2ncc(-c3ccc(C(=O)NCCN)cc3)n2n1 [N-(2-aminoethyl)-4-(6-((3,3-dimethylbutyl)amino)imidazo[1,2-b]pyridazin-3-yl)benzamide]
37 | ≤ 100 | CCCCNc1ccc2ncc(-c3ccc(C(=O)NCCN)c(F)c3)n2n1 [N-(2-aminoethyl)-4-(6-(butylamino)imidazo[1,2-b]pyridazin-3-yl)-2-fluorobenzamide]
38 | ≤ 1000 | CCCCNc1ccc2ncc(-c3ccc(C(=O)NCCN)c(OC)c3)n2n1 [N-(2-aminoethyl)-4-(6-(butylamino)imidazo[1,2-b]pyridazin-3-yl)-2-methoxybenzamide]
39 | ≤ 1000 | CCCCNc1ccc2ncc(-c3ccc(C(=O)NCCN)cc3F)n2n1 [N-(2-aminoethyl)-4-(6-(butylamino)imidazo[1,2-b]pyridazin-3-yl)-3-fluorobenzamide]
40 | ≤ 1000 | CCCCNc1ccc2ncc(-c3ccc(C(=O)NCCN)cc3)n2n1 [N-(2-aminoethyl)-4-(6-(butylamino)imidazo[1,2-b]pyridazin-3-yl)benzamide]
41 | ≤ 1000 | CCCCNc1ccc2ncc(-c3ccc(C(=O)NCC(C)N)cc3)n2n1 (centres unmarked) [N-(2-aminopropyl)-4-(6-(butylamino)imidazo[1,2-b]pyridazin-3-yl)benzamide]
42 | ≤ 1000 | CCCCNc1ccc2ncc(-c3ccc(C(=O)NCCCN)cc3)n2n1 [N-(3-aminopropyl)-4-(6-(butylamino)imidazo[1,2-b]pyridazin-3-yl)benzamide]
43 | ≤ 1000 | CCCCNc1ccc2ncc(C(=O)Nc3ccc(OCCN)cc3)n2n1 [N-(4-(2-aminoethoxy)phenyl)-6-(butylamino)imidazo[1,2-b]pyridazine-3-carboxamide]
44 | ≤ 1000 | CCCCNc1ccc2ncc(C(=O)Nc3ccc(CN)cc3)n2n1 [N-(4-(aminomethyl)phenyl)-6-(butylamino)imidazo[1,2-b]pyridazine-3-carboxamide]
45 | ≤ 100 | CCCCNc1ccc2ncc(-c3ccc(C(=O)N[C@@H]4CCCC[C@@H]4N)cc3)n2n1 [N-((1R,2S)-2-aminocyclohexyl)-4-(6-(butylamino)imidazo[1,2-b]pyridazin-3-yl)benzamide]
46 | ≤ 100 | CCCCNc1ccc2ncc(-c3cc[nH]n3)n2n1 [N-butyl-3-(1H-pyrazol-3-yl)imidazo[1,2-b]pyridazin-6-amine]
47 | ≤ 100 | CCCCNc1ccc2ncc(-c3ccncc3OC)n2n1 [N-butyl-3-(3-methoxypyridin-4-yl)imidazo[1,2-b]pyridazin-6-amine]
